These results are taken from patent publication EP1200395B1, “UREA DERIVATIVES AS INHIBITORS OF CCR-3 RECEPTOR” (KIRIN BEER KABUSHIKI KAISHA, priority 1999, dated 2001).

The experiment deals with T1, CCR-3 (Homo sapiens, UniProt P51677).
T1 sequence (P51677 1-355): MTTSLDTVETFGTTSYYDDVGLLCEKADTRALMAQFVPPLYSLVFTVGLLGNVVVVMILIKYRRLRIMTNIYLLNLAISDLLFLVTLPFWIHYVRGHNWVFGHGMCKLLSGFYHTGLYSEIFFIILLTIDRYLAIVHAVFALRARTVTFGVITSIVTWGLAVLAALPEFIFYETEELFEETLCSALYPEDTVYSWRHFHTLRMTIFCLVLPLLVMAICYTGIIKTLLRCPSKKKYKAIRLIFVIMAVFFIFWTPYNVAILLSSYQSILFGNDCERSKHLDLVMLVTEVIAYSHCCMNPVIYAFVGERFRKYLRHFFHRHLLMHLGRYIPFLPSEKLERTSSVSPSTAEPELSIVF
Put plainly: Eotaxin-induced chemotaxis of CCR-3 transfectant cells (CCR3/U937). In kind it is cell-based. Details: expressed in transfected cells; host or cells: U937. The settings on record: 10 µM test compound, eotaxin 1 x 10^-9 M, CCR3/U937 cells (Table 3a); for inhibition at 10 µM: U-937. As to the method:
The inhibitory activity of the compounds against eotaxin-induced chemotaxis was determined by measuring the inhibition of migration of CCR-3 transfectant cells (CCR3/U937), using a minor modification of the method described by Ohashi, H. et al., Int Arch Allergy Immunol. […] The chemotaxis assay was performed in a 24-well culture plate. Human eotaxin suspended in assay medium was added to the wells at 1 x 10^-9 M along with test compounds at various concentrations. For a positive control, eotaxin was added to the wells without a test compound, and for a negative control, neither eotaxin nor a test compound was added to the wells. Chemotaxicell (Kurabo Co., Ltd.) having 5 micrometers pore size were inserted into each well and 100 micro liters of CCR-3 transfectant cells suspension were added to the top chamber. The plates were incubated at 37 °C for 1 hour. After incubation, migrated cells in lower wells were diluted and counted by particle size distribution analyzer (CDP-500, Sysmex Co., Ltd.).

Regarding `COC(=O)CCCN(CCCNC(=O)Nc1ccc(Br)cc1)[C@@H]1CCc2ccccc21` [Compound 178, Methyl 4-[[3-(4-bromophenylureido)propyl][(1R)-1-indanyl]amino]butylate], the “Chemotaxis Assay 10 µM (inhibition %)” value is 100%.
A word on the inhibition: it is the percentage by which the read-out fell short of the control. With `O=C(O)CCCN(CCCNC(=O)Nc1ccc(Br)cc1)[C@@H]1CCc2ccccc21` [Compound 179, 4-[[3-(4-Bromophenylureido)propyl][(1R)-1-indanyl]amino]butanoic acid], testing at 10 µM gave an inhibition of 100%.
`COC(=O)CCCN(CCCNC(=O)Nc1ccc(Br)cc1)[C@@H]1CCCc2ccccc21` [Compound 180, Methyl 4-[[3-(4-bromophenylureido)propyl][(1R)-1,2,3,4-tetrahydro-1-naphthyl]amino]burylate]: the “Chemotaxis Assay 10 µM (inhibition %)” value came to 100%.
Molecule `O=C(O)CCCN(CCCNC(=O)Nc1ccc(Br)cc1)[C@@H]1CCCc2ccccc21` [Compound 181, 4-[[3-(4-Bromophenylureido)propyl][(1R)-1,2,3,4-tetrahydro-1-naphthyl]amino]butanoic acid] registered an inhibition at 10 µM of 100%.
In the case of `CCOC(=O)CCCN(CCCNC(=O)Nc1ccc(Br)cc1)C1CCCc2ccccc21` (centres unmarked) [Compound 184, Ethyl 4-[[3-(4-bromophenylureido)propyl](1,2,3,4-tetrahydro-1-naphthyl)amino]burylate], the “Chemotaxis Assay 10 µM (inhibition %)” value was determined as 100%.
For `COC(=O)CCCN(CCCNC(=O)Nc1ccc(Cl)cc1)C1CCCc2ccccc21` (centres unmarked) [Compound 185], the “Chemotaxis Assay 10 µM (inhibition %)” value is given as 100%.
On the same count and under the same terms, next, `O=C(O)CN(CCCNC(=O)Nc1ccc(Br)cc1)C1CCCc2ccccc21` (centres unmarked) [Compound 186]: 69%; `COC(=O)CCCN(CCCNC(=O)Nc1ccc(F)cc1)C1CCCc2ccccc21` (centres unmarked) [Compound 187]: 100%; `O=C(O)CCCN(CCCNC(=O)Nc1ccc(F)cc1)C1CCCc2ccccc21` (centres unmarked) [Compound 188]: 100%.
As for `COC(=O)CCCN(CCCNC(=O)Nc1ccccc1Br)C1CCCc2ccccc21` (centres unmarked) [Compound 189], the “Chemotaxis Assay 10 µM (inhibition %)” value came to 94%.
For the molecule `O=C(O)CCCN(CCCNC(=O)Nc1ccccc1Br)C1CCCc2ccccc21` (centres unmarked) [Compound 190], the “Chemotaxis Assay 10 µM (inhibition %)” value was found to be 90%.
With `CCN(CCCNC(=O)Nc1ccccc1Br)C1CCCc2ccccc21` (centres unmarked) [Compound 191], the “Chemotaxis Assay 10 µM (inhibition %)” value came to 100%.
On to `CCN(CCCNC(=O)Nc1ccccc1)C1CCCc2ccccc21` (centres unmarked) [Compound 192], for which the “Chemotaxis Assay 10 µM (inhibition %)” value is reported as 100%.
`NC(=O)CCCN(CCCNC(=O)Nc1ccc(Br)cc1)C1CCCc2ccccc21` (centres unmarked) [Compound 193, 4-[[3-(4-Bromophenylureido)propyl](1,2,3,4-tetrahydro-1-naphthyl)amino]butanamide] registered an inhibition at 10 µM of 100%.
With `COC(=O)CCCN(CCCNC(=O)Nc1ccccc1Br)C(C)(C)c1ccccc1` [Compound 194], the “Chemotaxis Assay 10 µM (inhibition %)” value stood at 100%.
Same read-out and setting: next, `CC(C)(c1ccccc1)N(CCCNC(=O)Nc1ccccc1Br)CCCC(=O)O` [Compound 195]: 100%.
In the case of `O=C(CCCN(CCCNC(=O)Nc1ccc(Br)cc1)C1CCCc2ccccc21)NS(=O)(=O)c1ccccc1` (centres unmarked) [Compound 196, 3-[[3-(4-Bromophenylureido)propyl](1,2,3,4-tetrahydro-1-naphthyl)amino]-1-[(phenylsulfonyl)carbamoyl]propane], the inhibition at 10 µM was determined as 100%.
As for `COC(=O)CCCN(CCCNC(=O)Nc1cccc(Br)c1)C1CCCc2ccccc21` (centres unmarked) [Compound 198], the “Chemotaxis Assay 10 µM (inhibition %)” value is recorded as 100%.
Turning to `O=C(O)CCCN(CCCNC(=O)Nc1cccc(Br)c1)C1CCCc2ccccc21` (centres unmarked) [Compound 199], the “Chemotaxis Assay 10 µM (inhibition %)” value came to 100%.
On the same count and under the same terms, next, `COC(=O)CCCN(CCCNC(=O)Nc1ccc(Br)cc1C)C1CCCc2ccccc21` (centres unmarked) [Compound 200]: 100%; `Cc1cc(Br)ccc1NC(=O)NCCCN(CCCC(=O)O)C1CCCc2ccccc21` (centres unmarked) [Compound 201]: 100%; `CC(=O)OCCCCN(CCCNC(=O)Nc1ccc(Br)cc1)C1CCCc2ccccc21` (centres unmarked) [Compound 202]: 100%.
In turn, `O=C(NCCCN(CCCCO)C1CCCc2ccccc21)Nc1ccc(Br)cc1` (centres unmarked) [Compound 203, 4-[[3-(4-Bromophenylureido)propyl](1,2,3,4-tetrahydro-1-naphthyl)amino]-1-butanol] had an inhibition at 10 µM of 100%.
Regarding `O=C(NCCCN(CCCCCO)C1CCCc2ccccc21)Nc1ccc(Br)cc1` (centres unmarked) [Compound 205], the “Chemotaxis Assay 10 µM (inhibition %)” value stood at 97%.
As to `COC(=O)CCCN(CCCNC(=O)Nc1ccc(Br)cc1)C(C)(C)Cc1ccccc1` [Compound 206], the “Chemotaxis Assay 10 µM (inhibition %)” value is on record as 64%.
With `CC(C)(Cc1ccccc1)N(CCCNC(=O)Nc1ccc(Br)cc1)CCCC(=O)O` [Compound 207], the “Chemotaxis Assay 10 µM (inhibition %)” value stood at 50%.
For `CS(=O)(=O)NC(=O)CCCN(CCCNC(=O)Nc1ccc(Br)cc1)C1CCCc2ccccc21` (centres unmarked) [Compound 210], the “Chemotaxis Assay 10 µM (inhibition %)” value is 100%.
On to `COC(=O)CCCCN(CCCNC(=O)Nc1ccc(Br)cc1)C1CCCc2ccccc21` (centres unmarked) [Compound 213], for which the “Chemotaxis Assay 10 µM (inhibition %)” value was found to be 92%.
With `O=C(O)CCCCN(CCCNC(=O)Nc1ccc(Br)cc1)C1CCCc2ccccc21` (centres unmarked) [Compound 214], the “Chemotaxis Assay 10 µM (inhibition %)” value was found to be 99%.
As for `CC(=O)OCCCN(CCCNC(=O)Nc1ccc(Br)cc1)C1CCCc2ccccc21` (centres unmarked) [Compound 215], the “Chemotaxis Assay 10 µM (inhibition %)” value was 89%.
On the same count and under the same terms, the value for `O=C(NCCCN(CCCO)C1CCCc2ccccc21)Nc1ccc(Br)cc1` (centres unmarked) [Compound 216] was 100%.
Take `O=C(NCCCN(CCCc1nnnn1C(c1ccccc1)(c1ccccc1)c1ccccc1)C1CCCc2ccccc21)Nc1ccc(Br)cc1` (centres unmarked) [Compound 217, 3-[[3-(4-bromophenylureido)propyl](1,2,3,4-tetrahydro-1-naphthyl)amino]-1-[1-(triphenylmethyl)tetrazol-5-yl]propane]: testing at 10 µM gave an inhibition of 87%.
The molecule `O=C(NCCCN(CCCc1nnn[nH]1)C1CCCc2ccccc21)Nc1ccc(Br)cc1` (centres unmarked) [Compound 218, 3-[[3-(4-Bromophenylureido)propyl](1,2,3,4-tetrahydro-1-naphthyl)amino]-1-(1H-tetrazol-5-yl)propane] had an inhibition at 10 µM of 99%.
Take `O=C(NCCCN(CCCO)CCc1ccc(Cl)cc1)Nc1ccccc1` [Compound 219]: the “Chemotaxis Assay 10 µM (inhibition %)” value worked out at 86%.
As for `NC(=O)CN(CCCNC(=O)Nc1ccccc1)CCc1ccc(Cl)cc1` [Compound 220], the “Chemotaxis Assay 10 µM (inhibition %)” value came out at 77%.
Take `C=CCN(CCCNC(=O)Nc1ccccc1)CCc1ccc(Cl)cc1` [Compound 221]: the “Chemotaxis Assay 10 µM (inhibition %)” value is reported as 100%.
Same read-out and setting: the value for `O=C(NCCCN(Cc1ccc(C(=O)O)cc1)C1CCCc2ccccc21)Nc1ccc(Br)cc1` (centres unmarked) [Compound 223] was 86%.
The same measure, in the same setting: the value for `CCOC(=O)C1CC1CN(CCCNC(=O)Nc1ccc(Br)cc1)C1CCCc2ccccc21` (centres unmarked) [Compound 224] was 75%.
With `COC(=O)CCCN(CCCNC(=O)Nc1ccc(C(=O)O)cc1)C1CCCc2ccccc21` (centres unmarked) [Compound 225, Methyl 4-[[3-[4-(carboxy)phenylureido]propyl](1,2,3,4-tetrahydro-1-naphthyl)amino]butylate], the “Chemotaxis Assay 10 µM (inhibition %)” value amounted to 100%.
On the same count and under the same terms, next, `Cc1ccc(C(C)N(CCCNC(=O)Nc2ccc(Br)cc2)CCCC(=O)O)cc1` (centres unmarked) [Compound 226]: 100%.
For `COc1ccc([C@@H](C)N(CCCNC(=O)Nc2ccc(Br)cc2)CCCC(=O)O)cc1` [Compound 227, 4-[[3-(4-Bromophenylureido)propyl][(1R)-1-(4-methoxyphenyl)ethyl]amino]butanoic acid], the inhibition at 10 µM turned out to be 100%.
Same read-out and setting: next, `CCOC(=O)c1ccc(NC(=O)NCCCN(CCCC(=O)O)C2CCCc3ccccc32)cc1` (centres unmarked) [Compound 228, 4-[[3-[4-(Ethoxycarbonyl)phenylureido]propyl](1,2,3,4-tetrahydro-1-naphthyl)amino]butanoic acid]: 100%.
Consider `O=C(O)CCCN(CCCNC(=O)Nc1ccc(I)cc1)C1CCCc2ccccc21` (centres unmarked) [Compound 229, 4-[[3-(4-Iodophenylureido)propyl](1,2,3,4-tetrahydro-1-naphthyl)amino]butanoic acid], for which the inhibition at 10 µM came out at 100%.
Take `CCN(CCCNC(=O)Nc1ccccc1)CCc1ccc(F)cc1` [Compound 230]: the “Chemotaxis Assay 10 µM (inhibition %)” value is given as 100%.
In the case of `CCN(CCCNC(=O)Nc1ccccc1)CCc1ccc(C)cc1` [Compound 231], the “Chemotaxis Assay 10 µM (inhibition %)” value worked out at 90%.
With `CCN(CCCNC(=O)Nc1ccccc1)CCc1ccccc1Cl` [Compound 232], the “Chemotaxis Assay 10 µM (inhibition %)” value came out at 100%.
As for `CCN(CCCNC(=O)Nc1ccccc1)CCc1cccc(Cl)c1` [Compound 233], the “Chemotaxis Assay 10 µM (inhibition %)” value came out at 100%.
